# Data from patent US9603804B2, “Solid pharmaceutical composition” (KYORIN PHARMACEUTICAL CO., LTD., priority 2013, dated 2017).
# Experiments:
# [1] = pH measurement of acidic/basic substances (2.5% liquid, pH meter); assay type: physicochemical; conditions: 50 mg substance dissolved or suspended in 1,950 μL of water (concentration: 2.5%)
# [2] = Solubility in water at 20° C. of acidic substances; assay type: physicochemical; conditions: MW={C/(100+C)}×100, C = mass (g) of solute dissolved in 100 g of water
# Procedure: The “solubility in water” herein is a value obtained by calculation using the following equation (A) on the basis of the mass (g) of a solute that is dissolved in 100 g of water. MW={C/(100+C)}×100 (A) In the equation (A), MW represents the solubility (%) in water and C represents the mass (g) of a solute that is dissolved in 100 g of water.
SMILES,pH [1],SOLUBILITY IN WATER (20° C.) [2] [%]
"O=C(O)CC(O)(CC(=O)O)C(=O)O [ANHYDROUS CITRIC ACID, citric acid anhydride]",2.1,
"N[C@@H](CC(=O)O)C(=O)O [L-ASPARTIC ACID, L-aspartic acid]",2.8,
"O=C(O)CC(O)C(=O)O (racemic) [DL-MALIC ACID, DL-malic acid]",2.1,36.0
"O=C([O-])CC(O)(CC(=O)O)C(=O)O.[Na+] [MONOBASIC SODIUM CITRATE, monobasic sodium citrate]",3.7,
"Cl.N[C@@H](CCC(=O)O)C(=O)O [L-GLUTAMIC ACID HYDROCHLORIDE, L-glutamic acid hydrochloride]",1.5,
"N[C@@H](CCC(=O)O)C(=O)O [L-GLUTAMIC ACID, L-glutamic acid]",3.0,
"O=C(O)C(O)C(O)C(=O)O [L-(+)TARTARIC ACID, L-(+)tartaric acid]",1.9,
"O=C(O)/C=C/C(=O)O [FUMARIC ACID, fumaric acid]",2.2,0.63
"O=C([O-])CC(O)(CC(=O)[O-])C(=O)O.[Na+].[Na+] [DIBASIC SODIUM CITRATE, dibasic sodium citrate]",5.1,
"O=C([O-])CC(O)(CC(=O)[O-])C(=O)[O-].[Na+].[Na+].[Na+] [SODIUM CITRATE, sodium citrate]",8.2,
